Reference: patent US8158165B2, “Preventative treatment and remission of allergic diseases” (CSIR, priority 2006, dated 2012)

Assays:
[1] = tested on: human peripheral blood mononuclear leukocytes (PBMNL); assay: Cytotoxicity, Mediator Release, Con A-Induced (AlamarBlue); format: cell-based
Experimental: (§1) For the ConA-Induced mediator release/cytotoxicity test, the test compound and/or vehicle is incubated with a suspension of human peripheral blood mononuclear leukocytes (PBMNL, 1×10^5/well) in the presence of Concanavalin A (Con A, 20 μg/ml) in RPMI buffer (pH 7.4) at 37° C. overnight in 5% CO2. AlamarBlue reagent is added and the cells are incubated at 37° C. for 16 hours. Living cells take up AlamarBlue and emit fluorescence. Fluorescence intensity is measured using a SpectraFluor Plus plate reader with excitation at 530 nm and emission at 590 nm. A decrease of 50% or more (50%) in fluorescence intensity relative to the vehicle treated controls indicates significant cytotoxicity. […] Dexamethasone is used as standard reference agent.

[2] = as above; format: cell-based, human; conditions: human, pH 7.4
Experimental: as §1

[3] = tested on: Human T lymphocytic Jurkat cells; assay: Cytotoxicity, Transcription Response NF-κB; format: cell-based
Experimental: Human T lymphocytic Jurkat cells, transfected with a response element-lacZ reporter in which transcription of the β-galactosidase gene is directed by the binding site for the NF-κB transcription factor, are used. Test compound and/or vehicle are incubated with the cells (1.5×10^6/ml) in the presence of 0.5 μM A23187 and 50 ng/ml PMA (phorbol 12-myristate 13-acetate) in RPMI-1640 pH 7.4 at 37° C. for 4 hours. Test compound-induced β-galactosidase activity is determined by the conversion of FDG (fluorescein di-β-D-galactopyranoside) to fluorescein. Fluorescence intensity is read on SpectroFluor Plus plate reader. […] […] These same concentrations are concurrently applied to a separate group of treated cells and evaluated for possible compound-induced cytotoxicity only if significant stimulation or inhibition is observed (Cat. #361100).

Cc1coc2c1C[C@H]1[C@H](C)C=CC(=O)[C@]1(C)C2 (relative stereo) [compound 1, 4,4a,5,9-tetrahydro-3,5,8a-trimethylnaptho[2,3-b]furan-8-one]
cytotoxicity observed in mediator release bio-assays (in words) [1]: Limited cytotoxicity
ANT. Cytotoxicity, Mediator Release, Con A-Induced ([1]; 10 nM): −1%
ANT. Cytotoxicity, Mediator Release, Con A-Induced ([1]; 0.1 μM): 0%
ANT. Cytotoxicity, Mediator Release, Con A-Induced ([1]; 1 μM): 18%
ANT. Cytotoxicity, Mediator Release, Con A-Induced ([1]; 10 μM): 35%
ANT. Cytotoxicity, Mediator Release, Con A-Induced ([1]; 100 μM): 53%
IC50 [2]: 58.5 µM
% RESPONSE Ant, Cytotoxicity, Transcription Response NF-κB ([3]; 0.1 μM): 6%
% RESPONSE Ant, Cytotoxicity, Transcription Response NF-κB ([3]; 1 μM): 2%
% RESPONSE Ant, Cytotoxicity, Transcription Response NF-κB ([3]; 10 μM): 2%
% RESPONSE Ant, Cytotoxicity, Transcription Response NF-κB ([3]; 10 μM, fifth (last) step of the series): 1%
% RESPONSE Ant, Cytotoxicity, Transcription Response NF-κB ([3]; 100 μM): −3%
% RESPONSE Ant, Cytotoxicity, Transcription Response NF-κB ([3]; 100 μM, listed as compound of formula 1): no apparent cytotoxicity
